Key:
COMBE = experiment: Post-emergence application in greenhouse trials; assay type: in vivo, Commelina benghalensis; details: growth stage 21, 1% MSO
Experimental: (§1) In the examples below, using the method of S. R. Colby (1967) “Calculating synergistic and antagonistic responses of herbicide combinations”, Weeds 15, p. 22ff., the value E, which is expected if the activity of the individual active compounds is only additive, was calculated.
(§2) [formula] • where • X=percent activity using active herbicide A at an application rate a; • Y=percent activity using active saflufenacil at an application rate b; • E=expected activity (in %) by A+B at application rates a+b.
(§3) If the value found experimentally is higher than the value E calculated according to Colby, a synergistic effect is present.
(§4) The culture containers used were plastic pots containing loamy sand with approximately 3.0% of humus as substrate. The seeds of the test plants were sown separately for each species.
(§5) For the post-emergence treatment, the test plants were grown to a plant height of from 3 to 15 cm, depending on the plant habit, and only then treated with the active compounds which had been suspended or emulsified in water. To this end, the test plants were either sown directly, and grown in the same containers, or they were first grown separately as seedlings and transplanted into the test containers a few days prior to treatment.
(§6) Depending on the species, the plants were kept at 10-25° C. and 20-35° C., respectively.
(§7) The test period extended over 2 to 4 weeks. During this time, the plants were tended and their response to the individual treatments was evaluated.
(§8) Evaluation was carried out using a scale from 0 to 100. 100 means no emergence of the plants, or complete destruction of at least the above-ground parts, and 0 means no damage or normal course of growth. A good herbicidal activity is given at values of at least 70, and very good herbicidal activity is given at values of at least 85.
(§9) Unless indicated otherwise, herbicide A and saflufenacil were formulated (50 g/I) and applied with addition of 1% MSO (methylated seed oil) as adjuvant. In the greenhouse trials, the solvent used was water (200 I/ha).

SETFA = experiment: Post-emergence application in greenhouse trials; assay type: in vivo, Setaria faberi; details: 7 DAT, growth stage 13, 1% MSO
Experimental: as §1, §2, §3, §4, §5, §6, §7, §8, §9

ECHCG [1] = experiment: Post-emergence application in greenhouse trials; assay type: in vivo, Echinocloa crus-galli; details: A-1 1.56 g ai/ha, growth stage 13, saflufenacil as commercial 342 g/l SC formulation
Experimental: as §1, §2, §3, §4, §5, §6, §7, §8, §9

CHEAL = experiment: Post-emergence application in greenhouse trials; assay type: in vivo, Chenopodium album; details: A-1 3.12 g ai/ha, 21 DAT, growth stage 51, saflufenacil as commercial 342 g/l SC formulation
Experimental: as §1, §2, §3, §4
as §5, with “treatment. […]” for “treatment.”
The test period extended over 2 to 4 weeks. During this time, the plants were tended and their response to the individual treatments was evaluated. […]

ERICA = experiment: Post-emergence application in greenhouse trials; assay type: in vivo, Erigeron canadensis; details: 21 DAT, growth stage 31, saflufenacil as commercial 342 g/l SC formulation
Experimental: as §1, §2, §3, §4, §5, §6, §7, §8, §9

AVEFA = experiment: Post-emergence application in field trials (Examples 2 and 3); assay type: in vivo, Avena fatua; details: 1% v/v MSO
Experimental: as §1, §2, §3
(§10) On field test sites, natural weed infestation or seeded weeds were treated post-emergence of the weeds.
(§11) For the post emergence treatment, the weedy plants were treated as indicated below. The herbicidal compositions were, together with the adjuvant(s) as indicated, suspended or emulsified in water (200 l/ha unless indicated otherwise) as distribution medium and sprayed with commercial flat fan nozzles.
(§12) In the following experiments, the herbicidal activity for the individual herbicidal compositions (solo and mixture applications) was assessed the indicated days after treatment (DAT). The assessments for the damage on undesired weeds caused by the composition was carried out using a scale from 0 to 100%, compared to the untreated control plants. Here, 0 means no damage and 100 means complete destruction of the plants.
as §11, with “I/ha” for “l/ha”

BIDPI = experiment: as above; assay type: in vivo, Bidens pilosa; details: A-1 25 g ai/ha, 21 DAT, growth stage 12-16, height 5-10 cm, 0.5% MSO
Experimental: as §1, §2, §3, §10, §11
as §12, with “Here, 0 means no damage and 100 means complete destruction of the plants.” left out

BRADC = experiment: as above; assay type: in vivo, Brachiaria decumbens; details: growth stage 22-23, height 32-38 cm, 21 DAT, 1% Dash ® HC
Experimental: as §1, §2, §3, §10, §11, §12
as §11, with “I/ha” for “l/ha”

DIGIN = experiment: as above; assay type: in vivo, Digitaria insularis
Experimental: as §1, §2, §3, §10, §11, §12
as §11, with “I/ha” for “l/ha”

ECHCG [2] = experiment: as above; assay type: in vivo, Echinocloa crus-galli
Experimental: as §1, §2, §3, §10, §11, §12
as §11, with “I/ha” for “l/ha”

[3] = system: HORVS* (non-PPOi herbicide tolerant); experiment: as above; assay type: in vivo, Hordeum vulgare; details: 1% v/v MSO
Experimental: as §1, §2, §3, §10, §11, §12
as §11, with “I/ha” for “l/ha”

IPOTR = experiment: as above; assay type: in vivo, Ipomoea triloba; details: growth stage 40-41, height 65-75 cm, A-1 solo 30 g ai/ha, 21 DAT, 1% Dash ® HC
Experimental: as §1, §2, §3, §10, §11
as §12, with “Here, 0 means no damage and 100 means complete destruction of the plants.” left out

LOLRI = experiment: as above; assay type: in vivo, Lolium rigidum; details: growth stage 12-22, A-1 solo 25 g ai/ha, 14 DAT, 1% v/ MSO
Experimental: as §1, §2, §3, §10, §11
as §12, with “Here, 0 means no damage and 100 means complete destruction of the plants.” left out

SETIT = experiment: as above; assay type: in vivo, Setaria italica; details: height 21-31 cm, A-1 solo 40 g ai/ha, 22 DAT, 1% v/v MSO
Experimental: as §1, §2, §3, §10, §11
as §12, with “Here, 0 means no damage and 100 means complete destruction of the plants.” left out

STEME = experiment: as above; assay type: in vivo, Stellaria media; details: A-1 12.5 g ai/ha, 21 DAT, growth stage 63-67, height 7-18 cm, 140 l/ha water, 1% MSO + 2.5% ammoniumsulfate
Experimental: as §1, §2, §3, §10, §11
as §12, with “Here, 0 means no damage and 100 means complete destruction of the plants.” left out

CCOC(=O)COc1ccccc1Oc1nc(-n2c(=O)cc(C(F)(F)F)n(C)c2=O)c(F)cc1Cl [A-1, ethyl 2-[2-[[3-chloro-5-fluoro-6-[3-methyl-2,6-dioxo-4-(trifluoromethyl)pyrimidin-1-yl]-2-pyridyl]oxy]phenoxy]acetate]
% Herbicidal activity (COMBE; A-1 0.2 g ai/ha, 6 DAT): 15% | % Herbicidal activity (COMBE; A-1 0.2 g ai/ha, 20 DAT): 40% | % Herbicidal activity (COMBE; A-1 0.4 g ai/ha, 20 DAT): 75% | % Herbicidal activity (SETFA; A-1 0.2 g ai/ha): 35% | % Herbicidal activity (SETFA; A-1 0.3 g ai/ha): 55% | % Herbicidal activity (SETFA; A-1 0.4 g ai/ha): 65% | % Herbicidal activity (SETFA; A-1 0.5 g ai/ha): 80% | % Herbicidal activity (ECHCG [1]; 7 DAT): 70% | % Herbicidal activity (ECHCG [1]; 21 DAT): 55% | % Herbicidal activity (CHEAL): 65% | % Herbicidal activity (ERICA; A-1 1.56 g ai/ha): 10% | % Herbicidal activity (ERICA; A-1 3.12 g ai/ha): 10% | % Herbicidal activity (ERICA; A-1 6.25 g ai/ha): 30% | % Herbicidal activity (AVEFA; A-1 18 g ai/ha, 28 DAT, growth stage 14-15, height 9-16 cm, field, 100 l/ha water): 83% | % Herbicidal activity (AVEFA; A-1 18 g ai/ha, 29 DAT, growth stage 14-23, height 24-40 cm, field, 100 l/ha water): 80% | % Herbicidal activity (AVEFA; AVEFA, growth stage 15-16, height 25-38 cm, A-1 solo 12.5 g ai/ha, 16 DAT): 90% | % Herbicidal activity (AVEFA; AVEFA, growth stage 15-16, height 25-38 cm, A-1 solo 25 g ai/ha, 16 DAT): 95% | % Herbicidal activity (AVEFA; AVEFA, growth stage 15-16, height 25-38 cm, A-1 solo 50 g ai/ha, 16 DAT): 98% | % Herbicidal activity (BIDPI): 94% | % Herbicidal activity (BRADC; A-1 solo 30 g ai/ha): 75% | % Herbicidal activity (BRADC; A-1 solo 50 g ai/ha): 88% | % Herbicidal activity (DIGIN; A-1 50 g ai/ha, 7 DAT, height 60-80 cm, field, 0.5% v/v MSO): 70% | % Herbicidal activity (DIGIN; DIGIN, growth stage 65, height 40-50 cm, A-1 solo 30 g ai/ha, 21 DAT, 1% v/v MSO): 53% | % Herbicidal activity (ECHCG [2]; A-1 12.5 g ai/ha, 14 DAT, growth stage 14-19, height 2-8 cm, field, 140 l/ha water, 1% MSO + 2.5% ammoniumsulfate): 75% | % Herbicidal activity (ECHCG [2]; A-1 25 g ai/ha, 21 DAT, height 12.5-30 cm, field, 1% v/v MSO and 1% w/v ammoniumsulfate): 58% | % Herbicidal activity (ECHCG [2]; ECHCG, growth stage 21-23, height 43-44 cm, A-1 solo 30 g ai/ha, 21 DAT, 1% Dash ® HC): 52% | % Herbicidal activity ([3]; A-1 18 g ai/ha, 29 DAT, growth stage 15-24, height 25-45 cm, field, 100 l/ha water): 73% | % Herbicidal activity ([3]; HORVS* (non-PPOi herbicide tolerant), growth stage 15, height 31-43 cm, A-1 solo 12.5 g ai/ha, 16 DAT): 72% | % Herbicidal activity ([3]; HORVS* (non-PPOi herbicide tolerant), growth stage 15, height 31-43 cm, A-1 solo 50 g ai/ha, 16 DAT): 96% | % Herbicidal activity (IPOTR): 57% | % Herbicidal activity (LOLRI): 85% | % Herbicidal activity (SETIT): 83% | % Herbicidal activity (STEME): 83%
